Data from patent US20060024392A1, “Compositions and methods for enhancing the effectiveness of a chemotherapeutic agent” (priority 2004, published 2006).

Test system: NCM460 normal colon cells
Experiment: Sulforhodamine B (SRB) cell growth assay in NCM460 normal colon cells
Assay type: cell-based, human
Procedure: HT-29, a cell line derived from colorectal adenocarcinoma (ATCC, HTB 38), grows in McCoy's 5A medium (Biowhittaker, Inc. Walkersville, Md.). NCM460, a cell line derived from a normal human colon (InCell Corp. San Antonio, Tex.), grows in M3 Base media (InCell Corp. San Antonio, Tex.).
Both cell lines are kept at 37° C. and 5% CO2 atmosphere. Both media are supplemented with 10% fetal bovine serum (FBS, Biowhittaker, Inc. Walkersville, Md.).
Cells are fixed in situ by the gentle addition of 50 μl of cold 50% (w/v) TCA (final concentration, 10% TCA) and incubated for 60 minutes at 4° C. The supernatant is discarded, and the plates are washed five times with tap water and air dried. Sulforhodamine B (SRB) solution (100 μl) at 0.4% (w/v) in 1% acetic acid is added to each well, and plates are incubated for 10 minutes at room temperature. After staining, unbound dye is removed by washing five times with 1% acetic acid and the plates are air dried. Bound stain is subsequently solubilized with 100 μl 10 mM trizma base for 5 minutes, and the absorbance at wavelength of 490 nm was spectrophotometrically measured using a microplate reader Elx800 (Bio-Tek instruments, Inc.).
Cells were seeded in 96-well cluster tissue culture plates (Costar), containing 100 μl complete growth medium per well at densities of 5,000 cells per well. Incubated at 37° C. in a humidified tissue culture incubator. After 24 Hour, 100 μl complete medium containing 5 half-log dilutions of the 5FU from 2*10^−4 to 2*10^−6 M was added into each well (final concentrations are from 10^−4 to 10^−6 M). Six replicates were used for each concentration. Media containing 0.125% DMSO was used as control. After 48 hours of incubation with 5FU in medium, cell proliferation was assessed using the SRB assay.
Percentage growth (Growth%) is calculated as: [(Ti−Tz)/(C−Tz)]×100 [absorbance measurements at time zero (Tz), control growth (C), and test growth in the presence of drug at the different concentration levels (Ti)].
Growth inhibition of 50% (GI50) is calculated from [(Ti−Tz)/(C−Tz)]×100=50, which is the drug concentration resulting in a 50% reduction in the net protein increase (as measured by SRB staining) in control cells during the drug incubation.
Similar method as Experiment 1 was used, except cells were exposed to 5FU at concentration ranging from 10^−4.5 to 10^−7 M. Media containing 0.01% DMSO was used as control. Lower concentrations were used since it was observed that 0.1% DMSO inhibited the growth of NCM460 cells. The experiment was repeated 5 times.
The protocol was the same as Experiment 3, except cells were exposed to 5FU at concentration ranging from 10^−5 to 10^−7 M with chokeberry ARE at concentration of 5, 15.6, 50 μg monomeric anthocyanin/ml growth media. […] Differences in response are most evident at the 5 FU concentration of 10^−6 M and ARE concentration of 15.6 μg monomeric anthocyanin/ml. In normal cells, there is no difference in the percent growth by 5FU with or without ARE, whereas in colon cancer cells, growth with 5FU alone was 80% of control, and further reduced to 40% with ARE and 5 FU.

O=c1[nH]cc(F)c(=O)[nH]1 [5FU, 5-fluorouracil]
Growth % (5FU 1.0E−4.5 M, experiment 1): 45.13%
OD (5FU 1.0E−4.5 M, experiment 1): 0.264
Growth % (5FU 1.0E−4.5 M, experiment 2): 33.85%
OD (5FU 1.0E−4.5 M, experiment 2): 0.242
Growth % (5FU 1.0E−4.5 M, experiment 3): 36.70%
OD (5FU 1.0E−4.5 M, experiment 3): 0.256
Growth % (5FU 1.0E−5 M, experiment 1): 53.85%
OD (5FU 1.0E−5 M, experiment 1): 0.281
Growth % (5FU 1.0E−5 M, experiment 2): 48.21%
OD (5FU 1.0E−5 M, experiment 2): 0.27
Growth % (5FU 1.0E−5 M, experiment 3): 45.41%
OD (5FU 1.0E−5 M, experiment 3): 0.275
Growth % (5FU 1.0E−5 M, experiment 4): 57.58%
OD (5FU 1.0E−5 M, experiment 4): 0.285
Growth % (5FU 1.0E−5 M, experiment 5): 51.41%
OD (5FU 1.0E−5 M, experiment 5): 0.279
Growth % (5FU 1.0E−5.5 M, experiment 1): 55.38%
OD (5FU 1.0E−5.5 M, experiment 1): 0.284
Growth % (5FU 1.0E−5.5 M, experiment 2): 67.69%
OD (5FU 1.0E−5.5 M, experiment 2): 0.308
Growth % (5FU 1.0E−5.5 M, experiment 3): 60.55%
OD (5FU 1.0E−5.5 M, experiment 3): 0.308
Growth % (5FU 1.0E−5.5 M, experiment 4): 75.38%
OD (5FU 1.0E−5.5 M, experiment 4): 0.332
Growth % (5FU 1.0E−5.5 M, experiment 5): 72.54%
OD (5FU 1.0E−5.5 M, experiment 5): 0.339
Growth % (5FU 1.0E−6 M, experiment 1): 56.41%
OD (5FU 1.0E−6 M, experiment 1): 0.286
Growth % (5FU 1.0E−6 M, experiment 2): 63.08%
OD (5FU 1.0E−6 M, experiment 2): 0.299
Growth % (5FU 1.0E−6 M, experiment 3): 66.06%
OD (5FU 1.0E−6 M, experiment 3): 0.32
Growth % (5FU 1.0E−6 M, experiment 4): 93.56%
OD (5FU 1.0E−6 M, experiment 4): 0.38
Growth % (5FU 1.0E−6 M, experiment 5): 87.32%
OD (5FU 1.0E−6 M, experiment 5): 0.381
Growth % (5FU 1.0E−6.5 M, experiment 1): 59.49%
OD (5FU 1.0E−6.5 M, experiment 1): 0.292
Growth % (5FU 1.0E−6.5 M, experiment 2): 83.59%
OD (5FU 1.0E−6.5 M, experiment 2): 0.339
Growth % (5FU 1.0E−6.5 M, experiment 3): 78.44%
OD (5FU 1.0E−6.5 M, experiment 3): 0.347
Growth % (5FU 1.0E−6.5 M, experiment 4): 97.35%
OD (5FU 1.0E−6.5 M, experiment 4): 0.39
Growth % (5FU 1.0E−6.5 M, experiment 5): 92.61%
OD (5FU 1.0E−6.5 M, experiment 5): 0.396
Growth % (5FU 1.0E−7 M, experiment 4): 99.62%
OD (5FU 1.0E−7 M, experiment 4): 0.396
Growth % (5FU 1.0E−7 M, experiment 5): 89.79%
OD (5FU 1.0E−7 M, experiment 5): 0.388
